# From patent US8715653B2, “Modulation of Rhamm (CD168) for selective adipose tissue development” (The Regents of the University of California, priority 2006, dated 2014)
# Entries after “also recorded” stand apart in the source; their conditions may differ.
# Key:
# Rh-/- fibroblasts [1] = test: Disassembly of phalloidin-positive actin stress fibers in response to PDGF-BB; type: cell-based, mouse
# Source text: (§1) Tissue sections were stained for collagen (Masson's trichrome), α-smooth muscle actin, vimentin and tenascin following manufacturer's recommendations. Staining was quantified after counter-staining with Harris Hematoxylin (EM SCIENCE) and mounting in Cytoseal 60 (Tullberg-Reinert, H., and Jundt, G. 1999. In situ measurement of collagen synthesis by human bone cells with a sirius red-based colorimetric microassay: effects of transforming growth factor beta2 and ascorbic acid 2-phosphate. Histochem Cell Biol 112:271-276). Immunofluorescence of phospho-ERK1,2 was done as previously published (49). For the detection of droplets of neutral lipids, paraformaldehyde-fixed cells were stained with BODIPY 493/503 (25 μg/ml) (Gocze, P. M., and Freeman, D. A. 1994. Factors underlying the variability of lipid droplet fluorescence in MA-10 Leydig tumor cells. Cytometry 17:151-158). Actin stress fibers were detected with Oregon-green phalloidin.
# (§2) Cell migration and invasion require the rapid assembly/disassembly of the actin cytoskeleton. Since intracellular Rhamm forms associate with the actin cytoskeleton and are required for v-src-mediated actin cytoskeleton disassembly, we compared the ability of Rh-/- fibroblasts with Rh^FL-rescued fibroblasts to disassemble phalloidin-positive actin stress fibers in response to PDGF-BB. […]
# Wt fibroblasts [2] = test: as above; type: cell-based, mouse
# Source text: as §1, §2
# Rh-/- fibroblasts [3] = test: Random motility of fibroblasts by time-lapse cinemicrography; type: cell-based, mouse
# Description: (§3) Cell culture medium and culture conditions were described previously in Zhang, S., Chang, M. C., Zylka, D., Turley, S., Harrison, R., and Turley, E. A. 1998. The hyaluronan receptor RHAMM regulates extracellular-regulated kinase. J Biol Chem 273:11342-11348; and Tolg, C., et al. 2003. Genetic deletion of receptor for hyaluronan-mediated motility (Rhamm) attenuates the formation of aggressive fibromatosis (desmoid tumor). Oncogene 22:6873-6882. PDGF-BB (25 ng/ml), HA (500 ng/ml-1 mg/ml) or FCS (10%) were added to 24 hrs serum-starved, 50% sub-confluent fibroblasts on fibronectin (25 μg/ml)-coated dishes (Zhang, S., Chang, M. C., Zylka, D., Turley, S., Harrison, R., and Turley, E. A. 1998. The hyaluronan receptor RHAMM regulates extracellular-regulated kinase. J Biol Chem 273:11342-11348; Hall, C. L., Lange, L. A., Prober, D. A., Zhang, S., and Turley, E. A. 1996. pp60(c-src) is required for cell locomotion regulated by the hyaluronanreceptor RHAMM. Oncogene 13:2213-2224). […]
# (§4) For experiments assessing the motogenic effects of HA and PDGF-BB, cells were plated onto fibronectin-coated tissue culture flasks at 50% sub-confluence overnight then serum-starved for 24 hrs. […] For quantifying the effect of FCS, fibroblasts were plated at 50% sub-confluence overnight onto tissue culture dishes that had been pre-coated with serum proteins. […]
# (§5) Efficient repair of excisional wounds also depends upon motility speed in response to motogens present in the microenvironment (See Ridley, A. J., Schwartz, M. A., Burridge, K., Firtel, R. A., Ginsberg, M. H., Borisy, G., Parsons, J. T., and Horwitz, A. R. 2003. Cell migration: integrating signals from front to back. Science 302:1704-1709). The velocity of migration stimulated by HA (FIG. 6A) or FCS (FIGS. 9A, 9B) was assessed directly using time-lapse cinemicrography of cells cultured on fibronectin-coated 2D tissue culture surfaces (Hall, C. L., Lange, L. A., Prober, D. A., Zhang, S., and Turley, E. A. 1996. pp60(c-src) is required for cell locomotion regulated by the hyaluronanreceptor RHAMM. Oncogene 13:2213-2224). […]
# Wt fibroblasts [4] = test: as above; type: cell-based, mouse
# Description: as §3, §4, §5
# [5] = test system: rat excisional skin wounds; test: Wound site (sub-cutaneous) adipogenesis in full thickness excisional wounds covered with collagen gel; type: in vivo; conditions: for adipogenesis within the wound site: rat excisional wounds, peptide in collagen gel, 14 days after wounding, histology
# Description: FIG. 14. Effect of a hyaluronan binding peptide on wound site (sub-cutaneous) adipogenesis. A. Full thickness excisional wounds were placed on the flanks of male Fisher rats then these were covered with collagen gels (matrix) containing either no peptide (matrix), hyaluronan binding peptide (at 200, 20 and 2 ug/woundsite) or scrambled peptide (at 200 ug/woundsite). The wound sites were excised 14 days after wounding and processed for histology. Micrographs show Mason Trichrome stained tissue sections through the center of the wounds.
# Wt and Rh-/- mice (3-18 month old) or male Sprague-Dawley rats were anaesthetized by Halothane inhalation. Two full thickness wounds were placed on denuded back skin using a 4 mm metal punch. In the case of the rat experiments, 200 ul of a vitrogen solution (type 1 collagen solution that gels at 35-37C) containing no peptide, 2-200 μg hyaluronan binding peptide or scrambled peptide was used to cover the wounds. Animals were housed in individual cages for the experimental period. Wounds were harvested at varying times using a 8 mm metal punch from similar locations on the backs of mice of the same gender and age. Harvested wounds were fixed overnight in 4% paraformaldehyde and paraffin embedded as described in Tolg, C., et al. 2003. Genetic deletion of receptor for hyaluronan-mediated motility (Rhamm) attenuates the formation of aggressive fibromatosis (desmoid tumor). Oncogene 22:6873-6882;. Numbered serial sections were cut perpendicular to the wound edge starting at the wound center. The first and last sections were stained with Masson's trichrome and non-stained sections were used for immunohistochemistry. To ensure that serial sections were cut starting at the wound center, wound samples were cut in half through the wound center prior to embedding
# [6] = test system: uninjured skin of male Fisher rats; test: Subcutaneous fat after injection in collagen solution under uninjured skin; type: in vivo; conditions: uninjured rat skin, injected in type 1 collagen solution, harvested 4, 7 and 14 days after injection
# Description: 0.2 , 2 and 20 ug of hyaluronan binding peptide or scrambled peptide were mixed in 1 ml of type 1 collagen solution, (3 mg/m1) and 0.25 ml of the solution was injected under the skin on the flanks of 3 month old male Fisher rats. Hair at the site of injection was removed prior to injection using Nair for marking purposes. Injection sites were harvested by skin punches at 4, 7 and 14 days after injection.
# [7] = listed as Hyaluronan binding peptides
Compound,effect on actin disassembly in response to PDGF-BB (Rh-/- fibroblasts [1]),effect on actin disassembly in response to PDGF-BB (Wt fibroblasts [2]),effect on motility in response to PDGF-BB (Rh-/- fibroblasts [3]),"effect on motility in response to PDGF-BB (Wt fibroblasts [4]; Wt fibroblasts, PDGF-BB)","effect on random motility in the presence of FCS (Wt fibroblasts [4]; primary Wt fibroblasts, FCS)",concentrations that increase subcutaneous adipogenesis ([5]; rat excisional skin wounds),adipogenesis within the wound site [5],"adipogenesis within the wound site [5, 7]",subcutaneous fat / accumulation of adipocytes at injection site [6],"subcutaneous fat / accumulation of adipocytes at injection site [6, 7]"
COc1cccc(-c2cc(=O)c3ccccc3o2)c1N [PD98059],no effect,significantly inhibit,no effect,significantly inhibit,significantly reduce motility,,,,,
STMMRSHKTRSHHV (Hyaluronan binding peptide.),,,,,,20-200 μg/wound site,filled with adipocytes,promoted adipogenesis; also recorded: increase subcutaneous adipogenesis,increases subcutaneous fat,promoted adipogenesis
